Source: US11124605B2, “Antimicrobial alpha-helical cationic polypeptides” (priority 2015, dated 2021)

Tests used:
MG1655 (E. coli) = experiment: Minimal inhibitory concentration (MIC); assay type: cell-based, Escherichia coli; details: without polypeptide
Method: (§1) Gram-negative bacteria, DH5a (E. coli), MG1655 (E. coli), C101 (Pseudomonas aeruginosa), and Gram-positive bacteria, ATCC12608 (S. aureus), ATCC11778 (Bacillus toyonensis), and methicillin-resistant S. aureus (MRSA) strains, NRS382, NRS383, NRS384 were grown in LB medium at 37° C. Clinical isolated Helicobacter pylori strains, B107, J291, J99, J99-AF, J99-A9 and J99-A11 were incubated in BB with 10% FBS supplemented with vancomycin (5 μg/mL) at 37° C. Among them, J99-AF, J99-A9 and J99-A11 are drug resistant bacteria. For determination of the MIC, polypeptides were dissolved in media using serial dilutions from a stock solution. Into each well of a 96-well plate was added 200 μL of each concentration and 2 μL of bacteria (1×10^8 CFU (colony forming units)) in medium. The plate was incubated at 37° C. The optical density readings of microorganism solutions were measured after 24 h incubation. The MIC was considered as the lowest concentration of peptide where no visual growth of bacteria was detected.

[1] = system: C101 (Pseudomonas aeruginosa); experiment: Minimal inhibitory concentration (MIC); assay type: cell-based; details: without polypeptide
Method: as §1

DH5α (Escherichia coli) = experiment: Minimal inhibitory concentration (MIC); assay type: cell-based; details: without polypeptide
Method: Gram-negative bacteria, DH5a (E. coli), MG1655 (E. coli), C101 (Pseudomonas aeruginosa), and Gram-positive bacteria, ATCC12608 (S. aureus), ATCC11778 (Bacillus toyonensis), and methicillin-resistant S. aureus (MRSA) strains, NRS382, NRS383, NRS384 were grown in LB medium at 37° C. […] For determination of the MIC, polypeptides were dissolved in media using serial dilutions from a stock solution. Into each well of a 96-well plate was added 200 μL of each concentration and 2 μL of bacteria (1×10^8 CFU (colony forming units)) in medium. The plate was incubated at 37° C. The optical density readings of microorganism solutions were measured after 24 h incubation. The MIC was considered as the lowest concentration of peptide where no visual growth of bacteria was detected.

[2] = system: ATCC12608 (Staphylococcus aureus); experiment: Minimal inhibitory concentration (MIC); assay type: cell-based; details: without polypeptide
Method: as §1
The stability of polypeptide was tested in the MIC assay in different environments, including salts, serum, plasma, tear fluid, and mucin. […]

[3] = system: ATCC11778 (Bacillus toyonensis); experiment: Minimal inhibitory concentration (MIC); assay type: cell-based; details: without polypeptide
Method: as §1

[4] = system: trypsin, pronase, elastase from Pseudomonas aeruginosa, elastase from human leukocytes; experiment: Stability of polypeptides against protease (HPLC); assay type: in vitro ADME; details: 8 h incubation with trypsin, P. aeruginosa elastase or human leukocyte elastase
Method: As a positive control, LL-37 (0.1 mg/mL) was also incubated with trypsin (0.1 mg/mL) or pronase (12 mg/L) or Pseudomonas Aeruginosa elastase (0.6 mg/L) in Tris buffer (pH 7.4) at 37° C. LL-37 (0.1 mg/mL) was incubated with elastase from human leukocytes (2.5 mg/L) in sodium acetate buffer at 37° C. After 8 h of incubation, the samples were taken out for HPLC analyses.

| Compound | MIC of antibiotic (MG1655 (E. coli)) [µM] | MIC of antibiotic [1] [µM] | other results |
| --- | --- | --- | --- |
| C[C@H]1c2cccc(O)c2C(=O)C2=C(O)[C@]3(O)C(=O)C(C(N)=O)=C(O)[C@@H](N(C)C)[C@@H]3[C@@H](O)[C@@H]21 [Doxycycline, doxycycline] | 4.5 | 288.0 |  |
| CO[C@H]1/C=C/O[C@@]2(C)Oc3c(C)c(O)c4c(O)c(c(/C=N/N5CCN(C)CC5)c(O)c4c3C2=O)NC(=O)/C(C)=C\C=C\[C@H](C)[C@H](O)[C@@H](C)[C@@H](O)[C@@H](C)[C@H](OC(C)=O)[C@@H]1C [Rifampicin, rifampicin] | 9.7 | 77.8 |  |
| [H]/N=C(/N)N[C@H]1[C@H](O)[C@@H](O)[C@H](O[C@@H]2O[C@@H](C)[C@](O)(C=O)[C@H]2O[C@@H]2O[C@@H](CO)[C@H](O)[C@@H](O)[C@@H]2NC)[C@@H](N/C(N)=N\[H])[C@@H]1O [Streptomycin, streptomycin] |  |  | MIC of antibiotic (DH5α (Escherichia coli)): 6.9 µM; MIC of antibiotic [2]: 6.9 µM; MIC of antibiotic [3]: 6.9 µM |
| LL-37 |  |  | proteolytic degradation by HPLC [4]: readily degraded |
| gentamicin | 2.1 | 8.4 |  |
